One series addresses T1, human QPCT (Homo sapiens, UniProt Q16769).
T1 construct: purchased Anaspec AS-72230
Kind of series: Inhibition of human QPCT enzyme activity (SensoLyte Green Glutaminyl Cyclase Activity Assay Kit). It counts as biochemical. Particulars: fluorescence Ex/Em = 490 nm/520 nm. As for the experimental part:
(§1) The inhibition of human QPCT/QPCTL enzyme activity by the compounds was assessed using SensoLyte® Green Glutaminyl Cyclase Activity Assay Kit.
(§2) The working solutions of the test compounds were serially 6-fold diluted from an initial concentration of 200 µM to 7 concentration points in total. In the 75 µL reaction system, the initial working concentration of the test compound was 13.3 µM, and the final concentration of DMSO was 0.3%. 20 µL of prepared QPCT enzyme solution, 5 µL of test compound, and 25 µL of QPCT enzyme substrate were successively added to each well of a 384-well plate. The mixture was shaken on a microplate shaker for 1 min, centrifuged at 400 g for 1 min, and incubated at 37 °C for 30 min. Then, 25 µL of QPCT developer was added to each well, and the mixture was sufficiently mixed using a shaker for 1 min, centrifuged at 400 g for 1 min, and incubated at 37 °C for another 60 min. After the incubation was completed, the fluorescence values were read using a microplate reader, with parameter settings as follows: Ex/Em = 490 nm/520 nm. […] Curves were plotted using GraphPad Prism 9 software with the compound concentration (nM) as the abscissa and the enzyme activity inhibition rate (%) as the ordinate. Four-parameter fitting was performed, and the IC50 values for the inhibition of the QPCT enzyme activity by the compounds were calculated.

A further series addresses T2, human QPCTL (Homo sapiens, UniProt Q9NXS2).
T2 construct: purchased Sino Biological NXS6-1
Kind of series: Inhibition of human QPCTL enzyme activity (adjusted SensoLyte Green Glutaminyl Cyclase Activity Assay Kit). To be noted: human QPCTL enzyme (Sino Biological). The format is biochemical. As for the experimental part:
as §1
as §2, with “0.5 mM QPCT enzyme substrate was diluted to 5 µM with a buffer at a ratio of 1:100; 50 µg/mL QPCT enzyme was diluted to 125 ng/mL with a buffer and placed on ice for later use; QPCT developer was diluted with a buffer at a ratio of 1:250 and placed on ice for later use (the QPCT enzyme substrate, the QPCT enzyme, the buffer, and the QPCT developer were all from the kit). The working” for “The working”
The SensoLyte® Green Glutaminyl Cyclase Activity Assay Kit was appropriately adjusted by replacing the QPCT enzyme in it with human QPCTL enzyme (Sino Biological, Cat. No. NXS6-1) (the concentration of the working solution was kept unchanged) for determining the IC50 values for the inhibition of human QPCTL enzyme activity by compounds. […]

A short description of series [1]: Metabolic stability in liver microsomes (human). It counts as in vitro ADME. To be noted: pH 7.4; human liver microsomes 0.5 mg/mL, 1 µM compound, 1 mM NADPH; read-out: Half-life (t1/2, min) (human). As for the experimental part:
(§3) The experimental procedures were as follows: 1. […] 2. Preparation of reaction system The reaction system was prepared as follows:
(§4) 3. The reaction system was pre-incubated in a 37 °C water bath for 10 min. 20 µL of 10 mM NADPH solution (NADPH was dissolved by 100 mM phosphate-buffered saline) was added to the reaction system with a final concentration of NADPH being 1 mM. 20 µL phosphate-buffered saline was used instead of the NADPH solution to serve as the negative control. The negative control was used to exclude the effect of chemical stability of the compound itself. 4. The reaction was initiated by adding 2 µL of 100 µM compound of the present disclosure and verapamil, the positive control compound, to the reaction system with a final concentration of the compound being 1 µM. 5.
(§5) All data were calculated using Microsoft Excel software. The peak area was obtained by extracting an ion chromatogram.
On the technique in general: Liver microsomes are a subcellular fraction often used to study metabolism.

The target in another series is T3, CYP2C9 (Homo sapiens, UniProt P11712).
T3 construct: 1 µL of 20 mg/mL liver microsome solution; from tissue; host or cells: liver microsomes
The series is described as follows: Inhibition of CYP2C9 enzyme activity in liver microsomes. It counts as in vitro ADME. To be noted: substrate diclofenac, 15 min.

The target in a further series is T4, CYP2D6 (Homo sapiens, UniProt P10635).
T4 construct: 1 µL of 20 mg/mL liver microsome solution; from tissue; host or cells: liver microsomes
Kind of series: Inhibition of CYP2D6 enzyme activity in liver microsomes. The format is in vitro ADME. To be noted: substrate dextromethorphan, 15 min.

Series [2] in a line: Metabolic stability in liver microsomes (mouse). The format is in vitro ADME. To be noted: pH 7.4; mouse liver microsomes 0.5 mg/mL, 1 µM compound, 1 mM NADPH; read-out: Half-life (t1/2, min) (mouse). As for the experimental part: as §3, §4, §5
For the next series, the target named is T5, CYP3A4 (Homo sapiens, UniProt P08684).
T5 construct: 1 µL of 20 mg/mL liver microsome solution; from tissue; host or cells: liver microsomes
Kind of series: Inhibition of CYP3A4 enzyme activity in liver microsomes. The format is in vitro ADME. To be noted: substrate midazolam, 15 min.

Molecules are shown by their SMILES. Some results are limits rather than exact numbers.

A word on the IC50: it is the concentration that inhibits the measured activity by half.

T1 sequence (Q16769 29-361): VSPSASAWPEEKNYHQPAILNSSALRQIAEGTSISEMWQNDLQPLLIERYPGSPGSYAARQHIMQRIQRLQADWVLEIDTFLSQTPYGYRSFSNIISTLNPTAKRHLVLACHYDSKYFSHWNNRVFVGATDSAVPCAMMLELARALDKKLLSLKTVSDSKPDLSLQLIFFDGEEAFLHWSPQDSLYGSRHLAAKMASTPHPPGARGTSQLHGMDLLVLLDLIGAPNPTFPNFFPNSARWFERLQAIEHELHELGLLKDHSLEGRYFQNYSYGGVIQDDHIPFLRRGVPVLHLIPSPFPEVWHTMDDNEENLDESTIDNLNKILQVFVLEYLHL
T2 sequence (Q9NXS2 whole entry): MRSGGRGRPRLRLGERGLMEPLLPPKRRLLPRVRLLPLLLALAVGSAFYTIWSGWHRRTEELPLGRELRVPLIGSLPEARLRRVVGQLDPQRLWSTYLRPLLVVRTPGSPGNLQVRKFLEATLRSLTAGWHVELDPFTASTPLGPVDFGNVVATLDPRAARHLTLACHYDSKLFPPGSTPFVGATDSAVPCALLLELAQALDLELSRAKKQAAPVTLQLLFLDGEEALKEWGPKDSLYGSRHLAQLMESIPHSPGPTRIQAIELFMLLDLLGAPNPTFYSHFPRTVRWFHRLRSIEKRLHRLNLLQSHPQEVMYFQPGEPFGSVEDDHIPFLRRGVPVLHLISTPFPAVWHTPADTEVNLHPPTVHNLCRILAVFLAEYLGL
T3 sequence (P11712 whole entry): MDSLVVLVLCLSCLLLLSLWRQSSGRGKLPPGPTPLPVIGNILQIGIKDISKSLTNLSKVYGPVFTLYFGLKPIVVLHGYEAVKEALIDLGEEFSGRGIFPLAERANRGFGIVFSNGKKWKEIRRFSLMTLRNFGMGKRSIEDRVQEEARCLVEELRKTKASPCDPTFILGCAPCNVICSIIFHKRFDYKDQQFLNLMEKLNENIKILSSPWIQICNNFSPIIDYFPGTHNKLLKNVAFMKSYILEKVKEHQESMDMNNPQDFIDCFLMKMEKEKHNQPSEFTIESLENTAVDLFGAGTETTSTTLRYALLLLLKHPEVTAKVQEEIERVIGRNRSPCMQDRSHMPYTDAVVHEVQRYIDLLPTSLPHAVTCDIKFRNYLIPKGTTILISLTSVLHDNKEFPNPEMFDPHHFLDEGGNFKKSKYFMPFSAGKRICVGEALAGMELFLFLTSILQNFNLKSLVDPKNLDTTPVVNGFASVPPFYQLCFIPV
T4 sequence (P10635 whole entry): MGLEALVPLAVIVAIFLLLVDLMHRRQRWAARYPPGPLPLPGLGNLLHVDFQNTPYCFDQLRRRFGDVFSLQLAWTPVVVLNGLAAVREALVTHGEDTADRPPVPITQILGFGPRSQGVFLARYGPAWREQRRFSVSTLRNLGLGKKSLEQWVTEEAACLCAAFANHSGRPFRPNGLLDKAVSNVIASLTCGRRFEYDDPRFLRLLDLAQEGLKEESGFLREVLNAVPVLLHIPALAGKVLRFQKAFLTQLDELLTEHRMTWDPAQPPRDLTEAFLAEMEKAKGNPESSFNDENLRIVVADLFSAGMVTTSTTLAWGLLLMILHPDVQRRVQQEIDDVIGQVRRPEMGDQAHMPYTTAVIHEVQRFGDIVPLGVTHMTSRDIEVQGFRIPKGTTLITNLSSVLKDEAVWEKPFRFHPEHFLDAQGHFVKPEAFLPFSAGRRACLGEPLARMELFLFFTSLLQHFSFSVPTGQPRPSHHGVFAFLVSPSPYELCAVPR
T5 sequence (P08684 whole entry): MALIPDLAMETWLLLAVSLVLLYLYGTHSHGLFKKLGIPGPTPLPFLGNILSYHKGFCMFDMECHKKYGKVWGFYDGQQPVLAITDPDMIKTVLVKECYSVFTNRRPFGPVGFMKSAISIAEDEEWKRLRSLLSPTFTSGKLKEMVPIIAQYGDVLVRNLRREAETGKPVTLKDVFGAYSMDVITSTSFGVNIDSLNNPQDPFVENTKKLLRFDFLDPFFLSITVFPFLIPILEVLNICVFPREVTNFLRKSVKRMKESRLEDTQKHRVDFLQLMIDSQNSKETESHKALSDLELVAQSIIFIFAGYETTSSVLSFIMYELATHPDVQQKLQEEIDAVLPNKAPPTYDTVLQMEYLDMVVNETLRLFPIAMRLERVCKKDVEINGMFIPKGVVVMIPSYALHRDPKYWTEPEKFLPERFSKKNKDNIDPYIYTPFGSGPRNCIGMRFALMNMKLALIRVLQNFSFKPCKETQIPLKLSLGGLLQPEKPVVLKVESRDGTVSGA

Regarding `O=C1C[C@H](C23CC(N4CCOCC4)(C2)C3)N1c1ccc2[nH]cnc2c1` [Compound 7], the IC50 against human QPCT is 36.8 nM; at human QPCTL, 25.1 nM; on CYP2C9 it was greater than 50000 nM; at CYP2D6, greater than 50000 nM; on CYP3A4, greater than 50000 nM. Further, the half-life at 1 µM in series [1] was found to be 316 min; in series [2], 325 min.
`[2H][C@]1(C23CC(C2)C3)CC(=O)N1c1ccc2[nH]cnc2c1` [Compound 11] showed an IC50 at human QPCT of 42.5 nM.
The same measure, in the same setting: the result for `O=C1C[C@H](C23CC(Cl)(C2)C3)N1c1ccc2[nH]cnc2c1` [Compound 13] reads 73.2 nM.
On the same count and under the same terms, the result for `N#Cc1ccc(C23CC([C@H]4CC(=O)N4c4ccc5[nH]cnc5c4)(C2)C3)cc1` [Compound 6] reads 19.1 nM.
Regarding `CCCOC12CC([C@H]3CC(=O)N3c3ccc4[nH]cnc4c3)(C1)C2` [Compound 3], the IC50 is 52.4 nM on human QPCT and 6.5 nM against human QPCTL.
For the compound `O=C1C[C@H](C23CC(F)(C2)C3)N1c1ccc2[nH]cnc2c1` [Compound 2], the midpoint of inhibition at human QPCT, the IC50, lay at 170 nM.
Same read-out and setting: with `O=C1C[C@H](C23CC(c4ccncc4)(C2)C3)N1c1ccc2[nH]cnc2c1` [Compound 5] the figure was 8.5 nM.
The same measure, in the same setting: with `CC12CC([C@H]3CC(=O)N3c3ccc4nc[nH]c4c3)(C1)C2` [Compound 9] the figure was 37.3 nM.
Take `O=C1C[C@H](C23CC(c4ccc(F)cc4)(C2)C3)N1c1ccc2[nH]cnc2c1` [Compound 4]: the IC50 against human QPCT came to 10.7 nM; at human QPCTL, 3.9 nM.
`COC12CC([C@H]3CC(=O)N3c3ccc4[nH]cnc4c3)(C1)C2` [Compound 8]: at human QPCT, inhibition was half-maximal at 166 nM (IC50).
The same measure, in the same setting: with `O=C1C[C@H](C23CC(CF)(C2)C3)N1c1ccc2nc[nH]c2c1` [Compound 10] the figure was 58.9 nM.
